Values after ≈ are worked out from the molar mass of the structure shown. Values joined by “and” are separate entries in the source; they are usually repeats but may differ in a detail not shown here. Equal entries are not always repeated. Where two headings read alike, the source gives them in different places.
Legend:
BMX [1] = molecular target: T1, BMX (Homo sapiens, UniProt P51813); assay: BMX biochemical activity assay (HTRF, phosphorylation of a biotinylated peptide); conditions: for LE (BMX): ligand efficiency; for LipE (BMX): lipophilic efficiency
T1 sequence (P51813 1-675): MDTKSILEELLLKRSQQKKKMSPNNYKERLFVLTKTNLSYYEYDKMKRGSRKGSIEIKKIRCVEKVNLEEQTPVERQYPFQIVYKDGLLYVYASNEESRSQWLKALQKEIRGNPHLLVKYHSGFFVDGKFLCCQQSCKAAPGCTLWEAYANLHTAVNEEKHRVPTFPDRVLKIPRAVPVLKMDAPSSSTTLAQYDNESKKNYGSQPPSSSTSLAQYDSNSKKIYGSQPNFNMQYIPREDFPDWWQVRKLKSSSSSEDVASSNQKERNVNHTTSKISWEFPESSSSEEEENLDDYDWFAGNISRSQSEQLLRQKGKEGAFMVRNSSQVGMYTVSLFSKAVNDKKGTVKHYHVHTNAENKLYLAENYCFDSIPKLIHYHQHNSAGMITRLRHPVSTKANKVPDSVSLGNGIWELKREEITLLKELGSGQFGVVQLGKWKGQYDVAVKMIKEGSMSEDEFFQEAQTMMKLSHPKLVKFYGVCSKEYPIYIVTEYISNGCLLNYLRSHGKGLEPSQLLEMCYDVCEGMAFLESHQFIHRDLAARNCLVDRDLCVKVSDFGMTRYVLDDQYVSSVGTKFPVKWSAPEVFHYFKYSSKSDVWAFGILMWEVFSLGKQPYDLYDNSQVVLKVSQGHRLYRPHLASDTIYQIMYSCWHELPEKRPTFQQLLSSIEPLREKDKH

[2] = Dynamic light scattering, colloidal aggregation; type: physicochemical; conditions: measured at 10 µM, 1 µM and 100 nM, 25 °C, read-out: DLS maximum soluble concentration at which no aggregates are observed
Description: In addition, we measured particle sizes by using dynamic light scattering (DLS).
DLS is measured at 10 µM, 1µM and 100 nM. The maximum soluble
concentration – at which no aggregates are observed - is indicated and the colour code indicates
Dynamic Light Scattering:
Dynamic light scattering (Zetasizer Nano S, Malvern, UK) was used to determine compound colloidal aggregation. […] A 10 mM stock solution of
test compounds was prepared in DMSO, following dilution to deionized and filtered water to
obtain an analyte solution of 10 μM (0.1% DMSO). Colloidal aggregation was measured
through sequential dilutions at 10 μM, 1 μM and 0.1 μM.

[3] = molecular target: T2, recombinant human BMX protein (hBMX) (Homo sapiens, UniProt P51813); assay: Differential scanning fluorimetry (DSF); type: binding; conditions: 100 μM compound; for ΔTm at 100 µM / ΔTm: versus apo-BMX; for ΔTm at 100 µM: read-out: ΔTm; for Average Tm of BMX with compound: apo-BMX Tm 51.8-52.2 °C
T2 construct: Crystallization, data collection, and structure determination of BMX catalytic domain in; made in house; host or cells: Sf-9 insect cells

[4] = pH 6.8
Source text: (§1) For assessment of drug permeability, we relied on parallel artificial membrane permeability assay (PAMPA) performed at Pion Inc. with the PAMPA Evolution™ instrument (Table S1, ESI ^†).
(§2) methods (ESOL model1 and Ali et al.2) PAMPA: Pe is effective permeability (x10-6 cm/sec)
(§3) measured directly from assay at pH 6.8 and %R is membrane retention.
(§4) as the average of quadruplicates. Und label refers to compounds with extremely low solubility
(§5) for which UV limits were below the detection limits therefore considered undetected.
(§6) Compounds were labelled as high permeability (green), medium permeability (orange) or low
(§7) Artificial Membrane Permeability (PAMPA):
(§8) The PAMPA Evolution™ instrument was used to determine permeability, at Pion Inc. In
(§9) PAMPA, a sandwich is formed such that each composite well is divided into two chambers,
(§10) measured at pH 6.8 in the donor compartment using low-binding, low UV Prisma buffer. The
(§11) drug-free acceptor compartment was filled with acceptor sink buffer containing a scavenger at
(§12) the start of the test. The proprietary scavenger mimics serum proteins and blood circulation,
(§13) thus creating sink conditions. Aqueous solutions of studied compounds are prepared by diluting
(§14) and thoroughly mixing 3 µL of DMSO stock in 600 µL of Prisma HT buffer. Final
(§15) concentration of organic solvent (DMSO) in aqueous buffer is ≤ 0.5% (v/v). The reference
(§16) solution is identical to the donor at time zero, so that any surface adsorption effects from the
(§17) plastic ware is compensated. The PAMPA sandwich was assembled and allowed to incubate
(§18) for ~15 hours. The solutions in the donor compartment were un-stirred within duration of the
(§19) experiment. Thus, the thickness of the aqueous boundary layer expected to be about 1000 µm.
(§20) The sandwich was then separated, and both the donor and receiver compartments were assayed
(§21) for the amount of drug present by comparison with the UV spectrum obtained from reference

in vitro = conditions: PAMPA
Source text: as §1, §2, §3, §4, §5, §6, §7, §8, §9, §10, §11, §12, §13, §14, §15, §16, §17, §18, §19, §20, §21

LNCaP = assay: Multi cell line growth assay (CellTiter-Glo, 72 h); type: cell-based, human; conditions: Prostate, ND = no growth inhibition observed within the concentrations tested
22 RV1 = assay: Multi cell line growth assay (CellTiter-Glo, 72 h); type: cell-based, human; conditions: Prostate, ND = no growth inhibition observed
PC3 = assay: Multi cell line growth assay (CellTiter-Glo, 72 h); type: cell-based, human; conditions: Prostate, ND = no growth inhibition observed
SK-N-MC = assay: Multi cell line growth assay (CellTiter-Glo, 72 h); type: cell-based, human; conditions: Brain, ND = no growth inhibition observed
Jurkat = assay: Multi cell line growth assay (CellTiter-Glo, 72 h); type: cell-based, human; conditions: Blood, ND = no growth inhibition observed
Kasumi = assay: Multi cell line growth assay (CellTiter-Glo, 72 h); type: cell-based, human; conditions: Blood, ND = no growth inhibition observed
CAOV3 = assay: Multi cell line growth assay (CellTiter-Glo, 72 h); type: cell-based, human; conditions: Ovary, ND = no growth inhibition observed
RS4(11) = assay: Multi cell line growth assay (CellTiter-Glo, 72 h); type: cell-based, human; conditions: Lung (so in the source), ND = no growth inhibition observed
DAUDI = assay: Multi cell line growth assay (CellTiter-Glo, 72 h); type: cell-based, human; conditions: Lymphoid, ND = no growth inhibition observed
His6-hsBMX = molecular target: T3, His6-hsBMX (Homo sapiens, UniProt P51813); assay: Surface plasmon resonance (SPR); type: binding; conditions: 1:1 Langmuir fit, 25 °C
T3 construct: Crystallization, data collection, and structure determination of BMX catalytic domain in; made in house; host or cells: Sf-9 insect cells
Source text: response upon compound injection (t=0s), or upon washing (t=220s), on immobilized His6-
hsBMX surfaces. Compound concentrations injected on already saturated surfaces were not
included in the 1:1 Langmuir fitting model. X-axis: time (s); y-axis: response (arbitrary units).
Inset plots [x-axis: compound concentration (M); y-axis: response (arbitrary units)] show the
steady-state affinity (KDss) fit for the interactions wherein equilibrium was reached.
Surface Plasmon Resonance:
The kinetic and affinity parameters of protein-compound interaction were evaluated by SPR.
Experiments were carried out in a Biacore 4000 instrument (Biacore AB, GE Healthcare Life
Sciences, Uppsala, Sweden) at 25 °C. His6-BMX protein was diluted to 10 µg/mL in sodium
acetate pH 5.5, in the presence of 5 µM staurosporine and immobilized onto CM5 (Series S)
sensor chips, using the standard amine coupling procedure. Prior to immobilization, the
carboxymethylated surface of the chip was activated with 400 mM 1-ethyl-3-(3-
dimethylaminopropyl)-carbodiimide and 100 mM N-hydroxysuccinimide for 10 min. HBS-N
(10 mM HEPES pH7.4, 150mM NaCl) was used as the background buffer. Protein was coupled
to the surface after 2 to 10 min injection times, at a flow rate of 10 µL/min, in order to reach
1500 to 3500 response units (RU). The remaining activated carboxymethylated groups were
blocked with a 7 min injection of 1 M ethanolamine pH 8.5. Compounds were pre-diluted in
DMSO to 50x the desired highest tested concentration and diluted afterwards in running buffer
(20 mM HEPES pH 7.4, 150 mM NaCl, 1 mM DTT, 0.1 mM EGTA, 0.05 % (v/v) TWEEN-
20, 5 mM MgCl2) in order to reach 2% of DMSO concentration. A DMSO solvent correction
(1% - 3%) was performed to account for variations in bulk signal and to achieve high-quality
data. Each compound was injected over immobilized His6-BMX for 220 s (30 µL min-1;
association phase) followed by 600 to 2000 s of buffer flow (dissociation phase) at a maximum
five times in 2-fold dilution series. All sensorgrams were processed by first subtracting the
binding response recorded from the control surface (reference spot), followed by subtracting
the buffer blank injection from the reaction spot. All datasets were fit to a simple 1:1 Langmuir
interaction model with the provided Biacore 4000 Evaluation software, to determine kinetic rate constants (kon, koff) or steady-state affinity (KDss).

LNCaP cells [5] = assay: LNCaP cell growth assay (CellTiter-Glo, 96 h); type: cell-based; conditions: Homo sapiens, 96-well plates, mean of three experiments in triplicate, read-out: GI50 LNCaP
Description: (§22) GI50 values are reported in μM and are the mean of three individual experiments performed in triplicate. N.d., non-determined, no growth inhibition observed within the concentrations tested.
(§23) Cellular activity Assay: LNCaP and PC-3 Cell Growth Assay
(§24) Cells were seeded in white, opaque-bottom 96-well plates at 5000 cells/well (LNCaP) or 2000 cells/well (PC-3) in a total volume of 100 µL of culture media.
(§25) fold) in 100 µL media were added to the cells 24 hours later. After 96 hours incubation cellular viability was assessed by CellTiter-Glo® (Promega) according to the manufacturer’s instructions. The values were normalized to vehicle and IC50 was calculated using GraphPad

BMX [6] = molecular target: T1, BMX; assay: Kinetic characterization with ADP-Glo kinase assay; type: biochemical; set-up: purchased Promega Corporation (USA) V4512; conditions: duplicate, mean ± S.D.
Source text: The inactivation of BMX occurs in a two-step process that is governed by two parameters: the affinity of the initial non-covalent binding, KI, and the rate of the subsequent covalent bond-forming reaction with the thiol of the cysteine residue, kinact. […]. […] Thus, taking into account that all the analogues have the same Michael acceptor moiety, the enhanced activity must be a result of the structural modifications introduced in the scaffold. […]
Kinetic characterization using an ADP-GLOTM kinase assay:
The BMX enzyme system (Catalog. V4512) and the ADP-GloTM kinase assay were purchased from Promega Corporation (USA). In each kinase reaction, the concentration of BMX was set to 4.5 ng/µL. The peptide substrate Poly (4:1 Glu, Tyr) and ATP concentrations were set to 0.25 mg/mL and 50 µM, respectively. BMX was pre-incubated with different inhibitor concentrations (10-fold serial dilutions, starting at 1 mM), over different time periods (2 - 60 min), before initiating the kinase reactions. Reactions were started by adding 2.5X Poly E4Y1/ATP mixture. The reactions were carried out in a 384-well plate, stopping all at the same time with the addition of 5 µL of ADP-GloTM reagent, to consume the remaining ATP within 40 min. Then, 10 µL of kinase detection reagent was added into the wells and incubated for 30 min to produce a luminescence signal. The signal was measured using an Infinite M200 […]
observed rate constants for inhibition (kobs), at different inhibitor concentrations, were determined from the slope of a semi-logarithmic plot of inhibition versus time, and re-plotted against inhibitor concentration (nM). The experimental values were fitted into a hyperbolic function using GraphPad Prism 8 ([…]), to obtain the KI, kinact, and kinact/KI, as described previously.12 […]
(Thermo Fisher Scientific) using gold-coated glass needles. […]

BTK = BTK (Homo sapiens, UniProt Q06187); assay: BTK biochemical activity assay (radiometric, KinaseProfiler); set-up: purchased Eurofins DiscoverX KinaseProfiler (contract assay)
PC3 cells = assay: PC-3 cell growth assay (CellTiter-Glo, 96 h); type: cell-based; conditions: Homo sapiens, PC-3; 96 h, 96-well plates; N.d. = no growth inhibition observed within the concentrations tested; read-out: GI50 PC3
Description: as §22, §23, §24, §25

LNCaP cells [7] = assay: Anti-proliferative co-treatment assays in LNCaP; type: cell-based; conditions: JS24 3 μM, JS25 5 μM, JS26 6 μM, 5 days
[8] = Experiment 1 of Fig. S3, control JS9A (in-house BMX-IN-1), read-out: BMX IC50
[9] = relative to the control of the same set of experiments
[10] = deionized and filtered water (0.1% DMSO), kinetic from dmso stock
[11] = pH 6.8, PAMPA/Pe effective permeability
[12] = Experiment 2 of Fig. S3, control commercial BMX-IN-1, read-out: BMX IC50
[13] = Experiment 4 of Fig. S3 = Fig. 1b, duplicate, mean ± S.D., read-out: BMX inhibition IC50

BTK, sequence (Q06187 whole entry, species assumed): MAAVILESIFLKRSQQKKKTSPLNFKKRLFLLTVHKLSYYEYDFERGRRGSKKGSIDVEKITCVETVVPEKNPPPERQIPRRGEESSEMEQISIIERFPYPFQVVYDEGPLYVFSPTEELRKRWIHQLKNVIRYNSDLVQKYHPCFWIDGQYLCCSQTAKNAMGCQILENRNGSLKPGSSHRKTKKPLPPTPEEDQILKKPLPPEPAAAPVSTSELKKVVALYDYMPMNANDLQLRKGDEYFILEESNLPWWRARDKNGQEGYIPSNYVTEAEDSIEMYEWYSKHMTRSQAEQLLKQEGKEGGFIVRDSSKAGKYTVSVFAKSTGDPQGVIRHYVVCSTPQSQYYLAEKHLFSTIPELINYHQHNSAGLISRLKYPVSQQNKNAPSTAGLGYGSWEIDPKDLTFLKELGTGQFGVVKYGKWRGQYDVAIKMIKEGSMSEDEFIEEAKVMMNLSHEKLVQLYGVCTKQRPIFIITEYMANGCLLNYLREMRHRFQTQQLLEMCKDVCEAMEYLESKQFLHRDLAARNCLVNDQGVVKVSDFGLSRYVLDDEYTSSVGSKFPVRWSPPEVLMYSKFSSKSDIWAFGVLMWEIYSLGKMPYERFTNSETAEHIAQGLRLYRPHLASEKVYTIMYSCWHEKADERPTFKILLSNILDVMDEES

## C=CC(=O)Nc1ccc(C)c(-n2c(=O)ccc3cnc4ccc(-c5ccc(NS(C)(=O)=O)cc5)cc4c32)c1 [JS9C, N-(4-methyl-3-(9-(4-(methylsulfonamido)phenyl)-2-oxobenzo[h][1,6]naphthyridin-1(2H)-yl)phenyl)acrylamide]
BMX [1]; [8]
  IC50: 6900 ± 2920 nM
BMX [1]; [9]
  BMX potency loss (fold) against control BMX-IN-1: abolishes target inhibition
[2]; [10]
  solubility: 1 µM (≈ 0.525 µg/mL)
[3]
  ΔTm at 100 µM: 2.2 ± 0.06 °C
  Average Tm of BMX with compound: 54.12±0.06 °C
[4]
  PAMPA/%R membrane retention: 51±6%
In vitro; [11]
  Papp: 11 ± 1 ×10⁻⁶ cm/s

## CC(C)=CC(=O)Nc1cc(-n2c(=O)ccc3cnc4ccc(-c5ccc(NS(C)(=O)=O)cc5)cc4c32)ccc1C [JS11]
[2]; water
  solubility: 0.1 µM (≈ 0.0553 µg/mL)
[3]
  ΔTm: 0.34±0.11 °C
  Average Tm of BMX with compound: 52.26±0.11 °C
LNCaP
  GI50: 10.4 µM
22 RV1
  GI50: 7.3 µM
PC3
  GI50: 20.1 µM
SK-N-MC
  GI50: 8.24 µM
Jurkat
  GI50: 6.36 ± 0.17 µM
Kasumi
  GI50: 10.14 ± 0.07 µM
CAOV3
  GI50: 19.3 µM
RS4(11)
  GI50: 6.66 µM
DAUDI
  GI50: 4.57 ± 0.12 µM
[4]
  PAMPA/%R membrane retention: 54±9%
  PAMPA/Pe effective permeability: 31±4 x10-6 cm/sec

## C=CC(=O)Nc1cc(C)cc(-n2c(=O)ccc3cnc4ccc(-c5ccc(NS(C)(=O)=O)cc5)cc4c32)c1 [JS9B, N-(3-methyl-5-(9-(4-(methylsulfonamido)phenyl)-2-oxobenzo[h][1,6]naphthyridin-1(2H)-yl)phenyl)acrylamide]
BMX [1]; [8]
  IC50: 240 ± 25 nM
[2]; [10]
  solubility: < 0.1 µM
[3]
  ΔTm at 100 µM: 7.75 ± 0.11 °C
  Average Tm of BMX with compound: 59.68±0.11 °C
[4]
  PAMPA/%R membrane retention: 35±7%
In vitro; [11]
  Papp: 7.1 ± 2.3 ×10⁻⁶ cm/s

## C=CC(=O)Nc1cccc(-n2c(=O)ccc3cnc4ccc(-c5ccc(NS(C)(=O)=O)cc5)cc4c32)c1 [JS9D]
BMX [1]; [8]
  IC50: 59 ± 5 nM
BMX [1]; [9]
  BMX potency gain (fold) against BMX-IN-1: 6 fold
[2]; water
  solubility: 1 µM (≈ 0.511 µg/mL)
[3]
  ΔTm: 7.74±0.01 °C
  Average Tm of BMX with compound: 59.66±0.01 °C
[4]
  PAMPA/%R membrane retention: 48±3%
  PAMPA/Pe effective permeability: 11±1 x10-6 cm/sec

## C=CC(=O)Nc1cc(-n2c(=O)ccc3cnc4ccc(-c5ccc(C(F)(F)F)nc5)cc4c32)ccc1C [JS19]
BMX [1]; [12]
  IC50: 470 ± 179 nM
[2]; water
  solubility: < 0.1 µM
[3]
  Average Tm of BMX with compound: 58.64±0.13 °C
[4]
  PAMPA/Pe effective permeability: Und

## C=CC(=O)Nc1cc(-n2c(=O)ccc3cnc4ccc(-c5ccc(NS(=O)(=O)CCCC)cc5)cc4c32)ccc1C [JS14]
BMX [1]; [12]
  IC50: 890 ± 27 nM
[2]; water
  solubility: 0.1 µM (≈ 0.0567 µg/mL)
[3]
  ΔTm: 7.61±0.11 °C
  Average Tm of BMX with compound: 59.53±0.11 °C
[4]
  PAMPA/Pe effective permeability: Und

## C=CC(=O)Nc1cccc(-n2c(=O)ccc3cnc4cc(N5CCN(S(C)(=O)=O)CC5)ccc4c32)c1 [JS27]
BMX [1]; [13]
  IC50: 13.7 nM
BMX [1]
  LE (BMX): 0.30
  LipE (BMX): 5.54
BMX [1]; [9]
  BMX potency gain (fold) against BMX-IN-1: ≈ 4 fold
[2]; [10]
  solubility: ≥ 10 µM
[3]
  ΔTm at 100 µM: 10.81 ± 0.06 °C
  Average Tm of BMX with compound: 62.94±0.06 °C
His6-hsBMX
  koff: < 0.0001 s⁻¹
  kon: 99000 M⁻¹ s⁻¹
LNCaP cells [5]
  GI50: 9.3 µM
[4]
  PAMPA/%R membrane retention: 42±14%
In vitro; pH 6.8, PAMPA permeability
  Papp: 12 ×10⁻⁶ cm/s
In vitro; [11]
  Papp: 12 ± 2 ×10⁻⁶ cm/s
BMX [6]
  k inact: 0.166 min⁻¹ and 0.166 ± 0.003 min⁻¹
BTK
  BTK potency gain (fold) relative to BMX-IN-1: 15 fold
BTK; duplicate, mean ± S.D., read-out: BTK inhibition IC50
  IC50: 24.3 ± 0.3 nM
BTK; ligand efficiency
  LE (BTK): 0.29
BTK; lipophilic efficiency
  LipE (BTK): 5.29

## C=CC(=O)Nc1cccc(-n2c(=O)ccc3cnc4cc(-c5ccc(NS(C)(=O)=O)cc5)ccc4c32)c1 [JS26]
BMX [1]; [13]
  IC50: 9.1 nM
BMX [1]
  LE (BMX): 0.30
  LipE (BMX): 4.45
[2]; [10]
  solubility: ≥ 10 µM
[3]
  ΔTm at 100 µM: 9.34 ± 0.21 °C
  Average Tm of BMX with compound: 61.47±0.21 °C
His6-hsBMX
  koff: < 0.0001 s⁻¹
  kon: 72000 M⁻¹ s⁻¹
LNCaP cells [5]
  GI50: 7.7 µM
PC3 cells
  GI50: 10.1 ± 1.3 µM
LNCaP cells [7]; co-treatment with AKT1/2 (1 μM), relative to control AKT1/2
  decrease in cell viability: 63%
LNCaP cells [7]; co-treatment with LY294002 (3 μM)
  decrease in cell viability: 35%
[4]
  PAMPA/%R membrane retention: 8±14%
In vitro; pH 6.8, PAMPA permeability
  Papp: 19 ×10⁻⁶ cm/s
In vitro; [11]
  Papp: 19 ± 13 ×10⁻⁶ cm/s
BMX [6]
  k inact: 0.443 min⁻¹ and 0.443 ± 0.003 min⁻¹

## C=CC(=O)Nc1cc(-n2c(=O)ccc3cnc4ccc(-c5cccc(NS(C)(=O)=O)c5)cc4c32)ccc1C [JS15]
BMX [1]; Experiment 3 of Fig. S3, control commercial BMX-IN-1, read-out: BMX IC50
  IC50: 119 ± 11.4 nM
[2]; water
  solubility: 1 µM (≈ 0.525 µg/mL)
[3]
  ΔTm: 8.79±0.28 °C
  Average Tm of BMX with compound: 60.72±0.28 °C
[4]
  PAMPA/%R membrane retention: 17±24%
  PAMPA/Pe effective permeability: 30±18 x10-6 cm/sec
